According to patent US20260345717A1, “COMPOSITION FOR PREVENTING, AMELIORATING, OR TREATING ALZHEIMER'S DISEASE COMPRISING GRAPEVINE STEM EXTRACT OR COMPOUND ISOLATED THEREFROM AS EFFECTIVE COMPONENT” (KOREA INSTITUTE OF ORIENTAL MEDICINE, priority 2022, published 2026):

Assays:
[1] = tested on: herpes simplex virus (HSV-1) in Vero cells; assay: Antiviral effect: HSV-1 (GFP) infection of Vero cells, flow cytometry; assay type: cell-based; settings: for inhibition at 10 µM / inhibition at 5 µM: Human alphaherpesvirus 1, Vero, 18 h, read-out: inhibition rate of virus replication; for antiviral effect compared with other components of the extract: FIG. 2
Procedure: Vero cells were cultured in DMEM medium supplemented with 10% fetal bovine serum (FBS) and 1% penicillin/streptomycin. After culturing, the cells were infected with herpes simplex virus (HSV-1, 0.1 MOI) for 2 hours in DMEM medium supplemented with 1% penicillin/streptomycin. The infection solution was removed, the cells were washed with PBS and then treated with the samples from Preparation example 1 at different concentrations in DMEM supplemented with 10% FBS and 1% penicillin/streptomycin. The cells were subsequently cultured for 18 hours. Afterwards, the cells were recovered, fixed with 4% paraformaldehyde, washed with PBS, and GFP of the virus was quantified using flow cytometry. The cell infection rate was expressed as the infection rate compared to the group (Virus) that had not been treated with any sample.
In addition, the antiviral effect of the components contained in the grapevine stem extract obtained in Preparation example 2, i.e., vitisin A, &-viniferin, caraphenol A, betuin, cis-vitisin A, ampelopsin A, lupeol, vitisin B, malibatol A, viniferether B, lupenone, and resveratrol, was also determined by conducting experiments in the same manner as above.

[2] = tested on: gB protein of the herpes simplex virus; assay: gB viral protein expression in HSV-1 infected U373-MG cells, Western blot; assay type: cell-based, herpes simplex virus (HSV-1); settings: 10 μM, FIG. 5B, 1080 min
[3] = tested on: herpes simplex virus protein VP16; assay: VP16 viral protein expression in HSV-1 infected U373-MG cells; assay type: cell-based, herpes simplex virus (HSV-1); settings: concentration not restated
[4] = tested on: U373-MG cells infected with herpes simplex virus (HSV-1); assay: Cell survival of HSV-1 infected U373-MG cells, MTT assay; assay type: cell-based, human; settings: compared to untreated group (control), FIG. 5A; for viability at 10 µM: Homo sapiens, 18 h, read-out: cell survival rate
Procedure: (§1) U373-MG cells, a human-derived glioblastoma, were cultured in RPMI1640 medium supplemented with 10% FBS (Fetal bovine serum) and 1% penicillin/streptomycin. After culturing, the cells were infected with herpes simplex virus (HSV-1, 0.1 MOI) in RPMI1640 medium supplemented with 1% penicillin/streptomycin. After 2 hours, the infection solution was removed. After washing with PBS, the cells were treated for 18 hours with a sample in RPMI1640 supplemented with 10% FBS and 1% penicillin/streptomycin. […] Cell survival rate was expressed as cell survival rate compared to the untreated group (control).

tau protein (p-tau) = assay: Phosphorylation of tau protein (p-tau) in HSV-1 infected U373-MG cells, Western blot; assay type: cell-based, human; settings: 10 μM, FIGS. 10A and 10B
Procedure: as §1
(§2) The experiment was conducted in the same manner as the cell experiment in Example 3, but vitisin A, cis-vitisin A, and vitisin B isolated from grapevine stem extract were treated as test samples, and cell proteins were isolated to determine the expression of proteins that are related to dementia.

amyloid beta (Aβ1-42) = assay: Amyloid beta (Aβ1-42) expression in HSV-1 infected U373-MG cells, Western blot; assay type: cell-based, human; settings: 10 μM, FIGS. 10A and 10B
Procedure: as §1, §2

[5] = tested on: herpes simplex virus protein ICP27; assay: ICP27 viral protein expression in HSV-1 infected U373-MG cells; assay type: cell-based, herpes simplex virus (HSV-1); settings: concentration not restated

In the case of `Oc1ccc(C=Cc2cc(O)cc(O)c2)cc1` (single isomer, unassigned) [Resveratrol, resveratrol], the “inhibition of viral infection” value ([1]; Vero cells, HSV-1 0.1 MOI, 18 hours, concentration not restated in this sentence) is reported as 67%.
Work on `C=C(C)[C@@H]1CC[C@]2(C)CC[C@]3(C)[C@H](CC[C@@H]4[C@@]5(C)CC[C@H](O)C(C)(C)[C@@H]5CC[C@]43C)[C@@H]12` (single isomer, unassigned) [lupeol] yielded an inhibition at 10 µM [1] of 59%.
Compound `Oc1ccc([C@H]2c3c(O)cc(O)cc3[C@H]3c4c(cc(O)cc4[C@@H]2O)O[C@@H]3c2ccc(O)cc2)cc1` [amphelopsin A, ampelopsin A] has an inhibition at 10 µM [1] of 54%.
For `Oc1ccc(-c2oc3cc(O)cc4c3c2-c2cc(O)cc3c2[C@H](c2cc(O)cc5c2[C@@H]4[C@H](c2ccc(O)cc2)O5)[C@@H](c2ccc(O)cc2)O3)cc1` [caraphenol A], the inhibition at 10 µM [1] was 41%.
For `Oc1ccc([C@H]2c3c(O)cc(O)cc3[C@H]3c4c(cc(O)cc4[C@@H]2c2cc(/C=C/c4cc(O)cc5c4[C@H](c4cc(O)cc(O)c4)[C@@H](c4ccc(O)cc4)O5)ccc2O)O[C@@H]3c2ccc(O)cc2)cc1` [vitisin A], the “reduction of gB protein compared to the virus-infected group” value (“reduction of gB protein” below) [2] was 99%, the inhibition at 5 µM [1] was 80% and the inhibition at 10 µM [1] was 96%. The “antiviral effect compared with other components of the extract” value ([1]; Vero cells) was “best antiviral effect”, the “inhibition rate against VP16 compared to the virus-infected group” value [3] was 100% and the viability at 10 µM [4] was 87%. For the same compound, the “phosphorylation of tau protein (p-tau) compared to the virus-infected group” value (tau protein (p-tau)) was “significantly reduced”, the “expression of amyloid beta (Aβ1-42) compared to the virus-infected group” value (amyloid beta (Aβ1-42)) was “significantly reduced” and the “inhibition rate against ICP27 compared to the virus-infected group” value [5] was 93%.
`Oc1ccc([C@H]2Oc3cc(O)cc(/C=C/c4ccc5c(c4)[C@@H](c4cc(O)cc6c4[C@H](c4cc(O)cc(O)c4)[C@@H](c4ccc(O)cc4)O6)[C@H](c4ccc(O)cc4)O5)c3[C@@H]2c2cc(O)cc(O)c2)cc1` [vitisin B] was tested, and the “reduction of gB protein” value [2] was 66%, the inhibition at 5 µM [1] was 80% and the inhibition at 10 µM [1] was 76%. The “antiviral effect compared with other components of the extract” value ([1]; Vero cells) was “best antiviral effect” and the viability at 10 µM [4] was 76%.
With `Oc1ccc(/C=C/c2cc(O)cc3c2C(c2cc(O)cc(O)c2)C(c2ccc(O)cc2)O3)cc1` (stereo not drawn) [ε-viniferin] the inhibition at 10 µM [1] was 42%.
cis-vitisin A was tested, and the “reduction of gB protein” value [2] was 27% and the cell survival rate ([4]; 10 μM, 1080 min) was 84%.
